In patent publication US20220409692A1, “Systems Chemico-Pharmacology Drugs and Methods of Use” (The Medical College of Wisconsin, priority 2019, published 2022):
Peptide text beside a SMILES is read from it.

Assays:
[1] = target: T1, MPO (Homo sapiens, UniProt P05164); experiment: KYC/AA(n) peptide inhibition of MPO HOCl production (TMB assay) at varied pH; assay type: biochemical
T1 sequence (P05164 49-745): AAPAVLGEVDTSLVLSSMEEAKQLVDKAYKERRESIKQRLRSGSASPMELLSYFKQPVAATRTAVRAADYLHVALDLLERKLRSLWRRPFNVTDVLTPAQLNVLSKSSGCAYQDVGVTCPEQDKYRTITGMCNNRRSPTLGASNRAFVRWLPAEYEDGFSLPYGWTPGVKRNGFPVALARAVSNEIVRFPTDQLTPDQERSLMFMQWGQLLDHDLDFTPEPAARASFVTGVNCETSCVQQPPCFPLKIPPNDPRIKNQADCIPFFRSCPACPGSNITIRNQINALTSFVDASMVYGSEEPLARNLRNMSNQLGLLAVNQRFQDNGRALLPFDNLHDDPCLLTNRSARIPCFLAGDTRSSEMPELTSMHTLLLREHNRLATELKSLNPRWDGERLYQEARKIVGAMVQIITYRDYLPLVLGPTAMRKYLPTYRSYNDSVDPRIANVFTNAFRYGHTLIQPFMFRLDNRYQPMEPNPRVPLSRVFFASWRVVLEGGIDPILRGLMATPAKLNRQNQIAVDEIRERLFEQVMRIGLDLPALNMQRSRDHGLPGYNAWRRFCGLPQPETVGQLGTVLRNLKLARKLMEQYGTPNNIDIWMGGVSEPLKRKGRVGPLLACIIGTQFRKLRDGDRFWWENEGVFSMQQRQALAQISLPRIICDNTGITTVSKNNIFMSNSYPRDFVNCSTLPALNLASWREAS
From the text: Small peptides of generic formula AA(n) (where AA represents different amino acids, and n can be 2-5) are both substrates and inhibitors of MPO (alternatively, inhibitors of EPO). These peptides are […] at the active site of MPO, which subsequently decreases the production of toxic oxidants that includes but not restricted to hypochlorous acid. All MPO activities (i.e., hypochlorous acid production) described herein were quantified by the 3,3′,5,5′-tetramethylbenzidine (TMB) assay. […] The free radical itself may act as an activated species, and is stable enough to react with proximal proteins, peptides, metabolites or small molecules to effect further change. The free radical is not limited to a single target, but may effect change multiple independent targets. In a non-limiting example, the free radical goes on to form a hetero- or homo dimer via an oxidized —S—S— disulfide (or di-Selenium) linkage. Finally, the more interactions between the peptide and active site of MPO that occurs the lower numerical IC50 value of the peptide inhibitor.
KYZ is […] in the presence of MPO, which subsequently decreases the production of hypochlorous acid. All MPO activities (i.e., hypochlorous acid production) were quantified by the 3,3′,5,5′-tetramethylbenzidine (TMB) assay. The tripeptide KXZ, requires amino acid #1 (AA1, K) to be a native amino acid or an artificial amino acid (aa) with a basic side-chain such as an amine functional group (e.g., Lysine (K)). Amino acid #2 (AA2, X) is a native or artificial amino acid that may contain a polar, non-polar, or aromatic amino acid.

[2] = tested on: hyperoxic neonatal rat pups; experiment: Hyperoxia-induced BPD in neonatal rat pups: lung histology, cell counts and morphometrics; assay type: in vivo, Sprague-Dawley rat
From the text: Since the number of neonatal rat pups per pregnant dam limits the number of experimental conditions that can be compared, we modified our standard experimental design protocol. The first experiment was designed to determine if hyperoxia increased BPD, while the second was designed to determine if inhibiting MPO oxidant production reduced BPD. At least three sets of neonatal pups from three different dams were used for each experiment. Pups were fed ad libitum from nursing dams. Pups were weighed and inspected daily in room air for less than ten minutes. Nursing dams were switched daily to avoid the impact of nutritional status. Experience has taught us that severity of hyperoxia-induced BPD is litter dependent. To minimize litter differences, we determined the effects of hyperoxia vs. normoxia on BPD in neonatal pups by mixing pups from the litters and randomly reallocating pups with nursing dams.
Immunohistochemistry and Immunocytochemistry: After cannulating the trachea with an Instech Solomon (20G) stainless steel feeding tube (Plymouth Meeting, Pa.), the lungs were inflated with 10% neutral buffered formalin at 25 cm-H2O (2.4 kPa) for 1 h. Lungs were removed after the trachea were securely tied with surgical silk to maintain the pressure, and perfusion fixed with an additional aliquot of 10% neutral buffered formalin for 24 h before paraffin embedding. Lung sections (5 μm) were mounted on SuperFrost plus-coated slides (Denville Scientific, Metuchen, N.J.). Slides were deparaffinized and sections stained with hematoxylin and eosin (H&E). Histology images were captured with a mounted digital camera using an Olympus IX 51 microscope and a 10× objective. Inflammatory cells, myeloid cells including neutrophils, monocytes, and macrophages, were stained with MPO antibody (1:200) overnight at 4° C. and HPR-conjugated anti-rabbit antibody (1:1000) at room temperature for one hour then visualized by diaminobenzidine to generate a dark-brown color. Blood vessels were stained with RECA-1 and visualized with horseradish-conjugated secondary antibody and diaminobenzidine. The average of three sections per pup, and five counts per section (15 counts/pup) was used for statistical analysis. Quantified data were obtained and entered into the record using predetermined codes by one of the coauthors who was not involved in taking the images.
Morphometric Analysis: The mean linear intercept (MLI), or chord length, was used as a method to estimate the volume-to-surface ratio of acinar airspaces whereas radial alveolar count (RAC) and secondary septa were investigated to study the complexity of lung structure (21). Ten equally spaced horizontal lines were drawn on each picture, and the number of intercepts through the alveolar wall was counted. MLI was obtained by the number of times the traverses are placed on the lung times the length of the traverse then divided by the sum of all the intercepts. For the RAC, a line from the center of the respiratory tract perpendicular to the nearest connective tissue septum was drawn, and alveoli intercepting with the line were counted. For measurement of secondary septa, elastin was stained with resorcin fuchsin and Van Gieson's solution.
Since the number of neonatal rat pups per pregnant dam limits the number of experimental conditions that can be compared, we modified our standard experimental protocol. The first study was designed to determine if hyperoxia increased BPD and caused a change in proteins of interest. Data from these studies can be found in on-line supplemental data. The second study was designed to determine if inhibiting MPO toxic oxidant production reduced BPD. At least three sets of neonatal pups from three different dams were used for each study. Pups were fed ad libitum from nursing dams. Pups were inspected daily starting on P1 and weighed starting on P3 in room air for less than ten minutes. Nursing dams were switched daily to avoid the impact of oxygen toxicity. […]

[3] = hyperoxic pups, KYC vs PBS, P10

In the case of CC(=O)N[C@@H](CCCCN)C(=O)N[C@@H](Cc1ccc(O)cc1)C(=O)N[C@@H](CS)C(N)=O [KYC, N-acetyl lysyltyrosylcysteine amide] (Ac-Lys-Tyr-Cys-NH2), the “IC50 values compared with KLC” value ([1]; pH values of 6.5, 7.4 and 8.0) is reported as “superior”, the “IC50 values, inhibition of MPO HOCl production” value ([1]; varied pH) is reported as “changing of pH has limited effect on the IC50 values” and the “RAC (radial alveolar count)” value ([2]; KYC-treated HOX group, P10, PBS-treated HOX 4.2±0.6) is reported as 6.3±0.4. The secondary septation ([2]; KYC-treated HOX group, P10, PBS-treated HOX 5.0±1.3) was 7.8±1.2 /HPF, the capillary count ([2]; KYC-treated HOX group, P10, PBS-treated HOX 5.2±1.0) was 9.7±3.0 /HPF and the “MLI (mean linear intercept)” value ([2]; KYC-treated HOX group, P10, PBS-treated HOX 95.9±9.1) was 74.1±4.7 μm. For the same compound, the “MPO-positive myeloid cell count” value ([2]; hyperoxia (O2>90%) pups, KYC 5 mg/kg twice per day i.p. P2-P10, lungs at P10, PBS 2.0±0.7) was 0.8±0.7 /HPF, the “reduction of myeloid cell recruitment (MPO+ myeloid cells)” value ([2]; hyperoxic lungs, KYC vs PBS, P10) was “approximately 50%” and the “decrease of MLI” value [2, 3] was “approximately 22%”. The “increase of RAC” value [2, 3] was “approximately 35%”, the “increase of blood vessel counts” value [2, 3] was about 92% and the “increase of secondary septa” value [2, 3] was about 55%. For the same compound, the “8-OH-dG immunofluorescence staining (oxidative DNA damage)” value ([2]; hyperoxic rat pups, KYC vs PBS) was “reduced 8-OH-dG in the nuclei of lung cells”.
